For the assay, the target named is T1, human chemokine receptor 2 isoform B (CCR2) (Homo sapiens, UniProt P41597).
T1 sequence (P41597 1-360 isoform P41597-2): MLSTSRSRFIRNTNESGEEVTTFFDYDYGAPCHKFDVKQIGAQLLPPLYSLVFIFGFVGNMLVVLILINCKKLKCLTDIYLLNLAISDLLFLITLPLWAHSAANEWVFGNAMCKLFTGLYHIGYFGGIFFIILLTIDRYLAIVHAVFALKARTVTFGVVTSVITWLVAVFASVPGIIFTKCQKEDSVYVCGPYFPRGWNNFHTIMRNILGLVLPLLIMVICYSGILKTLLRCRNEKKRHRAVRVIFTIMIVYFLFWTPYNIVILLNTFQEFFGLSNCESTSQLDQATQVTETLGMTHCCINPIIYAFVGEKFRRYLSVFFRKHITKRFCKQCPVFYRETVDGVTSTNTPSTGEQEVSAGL
The assay is described as follows: Calcium mobilization assay (FLIPR, MCP-1 stimulated CHOK1-CCR2B-A5 cells). Particulars: Ca mobilisation assay, CCR2 antagonist activity, inhibition of MCP-1 induced calcium increase. The format is cell-based. The procedure:
Calcium Mobilization Assay
CHOK1-CCR2B-A5 cells (from Euroscreen) stably overexpressing the human chemokine receptor 2 isoform B were cultured in Nutrient Hams F12 medium supplemented with 5% FBS, 100 U/ml penicillin, 100 μg/ml streptomycin, 400 μg/ml G418 and 5 μg/ml puromycin.
For the assay cells were grown overnight in 384-well black clear flat bottom polystyrene plates (Costar) at 37° C. at 5% CO2. After washing with DMEM, 20 mM Hepes, 2.5 mM probenecid, 0.1% BSA (DMEM assay buffer) cells were loaded with 4 μM Fluo-4 in the same DMEM assay buffer for 2 hours at 30° C. Excess dye was removed and cells were washed with DMEM assay buffer. 384-well compound plates were prepared with DMEM assay buffer/0.5% DMSO with or without various concentrations of test compounds. Usually compounds were tested for agonist and antagonist activity.
Test compounds were added to the assay plate and agonist activity was monitored as fluorescence for 80 seconds with a FLIPR (488 nm excitation; 510-570 nm emission; Molecular Devices). After 20-30 min. of incubation at 30° C., […] MCP-1 (R&D; Roche) was added and fluorescence was monitored again for 80 seconds. Increases in intracellular calcium are reported as maximum fluorescence after agonist exposure minus basal fluorescence before exposure. Antagonist activity is indicated as inhibitor concentration required for 50% inhibition of specific calcium increases.
(Calcium flux is commonly read through the fluorescence of an indicator in the cells.)

The structures appear in SMILES notation.

As a reminder, the IC50 is the midpoint of a concentration-inhibition curve. For `CC1CN(C(CO)CCN2CCC3(CC3)[C@H](O)C2)C(=O)CCN1C(=O)Nc1cccc(Cl)c1` (stereo in doubt) [Example 63, (R)-4-[(S)-3-((S)-4-Hydroxy-6-aza-spiro[2.5]oct-6-yl)-1-hydroxymethyl-propyl]-2-methyl-5-oxo-[1,4]diazepane-1-carboxylic acid (3-chloro-phenyl)-amide], the IC50 amounted to 5.1 nM. As for `COCC(CCN1CCC2(CC2)[C@H](O)C1)N1CC(C)N(C(=O)Nc2cccc(Cl)c2)CCC1=O` (stereo in doubt) [Example 65, (R)-4-[(S)-3-((S)-4-Hydroxy-6-aza-spiro[2.5]oct-6-yl)-1-methoxymethyl-propyl]-2-methyl-5-oxo-[1,4]diazepane-1-carboxylic acid (3-chloro-phenyl)-amide], the figure is 21 nM. As to `COCC(CCN1CCC2(CC2)[C@H](O)C1)N1CC(C)N(C(=O)Nc2cccc(C(F)(F)F)c2)CCC1=O` (stereo in doubt) [Example 66, (R)-4-[(S)-3-((S)-4-Hydroxy-6-aza-spiro[2.5]oct-6-yl)-1-methoxymethyl-propyl]-2-methyl-5-oxo-[1,4]diazepane-1-carboxylic acid (3-trifluoromethyl-phenyl)-amide], the IC50 was determined as 33 nM. Turning to `COCC(CCN1CCC2(CC2)[C@H](O)C1)N1CC(C)N(C(=O)Nc2ccc(Cl)c(Cl)c2)CCC1=O` (stereo in doubt) [Example 68, (R)-4-[(S)-3-((S)-4-Hydroxy-6-aza-spiro[2.5]oct-6-yl)-1-methoxymethyl-propyl]-2-methyl-5-oxo-[1,4]diazepane-1-carboxylic acid (3,4-dichloro-phenyl)-amide], the IC50 is 3 nM. As to `COC(=O)C(CCN1CCC2(CC2)[C@H](O)C1)N1CCN(C(=O)Nc2cccc(Cl)c2)CCC1=O` (stereo partly drawn) [Example 1, (R,S)-2-[4-(3-Chloro-phenylcarbamoyl)-7-oxo-[1,4]diazepan-1-yl]-4-((S)-4-hydroxy-6-aza-spiro[2.5]oct-6-yl)-butyric acid methyl ester], the IC50 worked out at 470 nM. Regarding `O=C(Nc1cccc(Cl)c1)N1CCC(=O)N(C(CO)CCN2CCC3(CC3)[C@H](O)C2)CC1` (stereo partly drawn) [Example 2, (R,S)-4-[3-((S)-4-Hydroxy-6-aza-spiro[2.5]oct-6-yl)-1-hydroxymethyl-propyl]-5-oxo-[1,4]diazepane-1-carboxylic acid (3-chloro-phenyl)-amide], the IC50 was found to be 40 nM.

In the case of `COC(=O)[C@H](CCN1CCC2(CC2)[C@H](O)C1)N1CCN(C(=O)Nc2cccc(Cl)c2)CCC1=O` [Example 3, (S)-2-[4-(3-Chloro-phenylcarbamoyl)-7-oxo-[1,4]diazepan-1-yl]-4-((S)-4-hydroxy-6-aza-spiro[2.5]oct-6-yl)-butyric acid methyl ester], the IC50 is 270 nM. With `O=C(Nc1cccc(Cl)c1)N1CCC(=O)N([C@H](CO)CCN2CCC3(CC3)[C@H](O)C2)CC1` [Example 4, 4-[(S)-3-((S)-4-Hydroxy-6-aza-spiro[2.5]oct-6-yl)-1-hydroxymethyl-propyl]-5-oxo-[1,4]diazepane-1-carboxylic acid (3-chloro-phenyl)-amide], the IC50 worked out at 10 nM. For the molecule `COCC(CCN1CCC2(CC2)[C@H](O)C1)N1CCN(C(=O)Nc2cccc(Cl)c2)CCC1=O` (stereo partly drawn) [Example 5, (R,S)-4-[3-((S)-4-Hydroxy-6-aza-spiro[2.5]oct-6-yl)-1-methoxymethyl-propyl]-5-oxo-[1,4]diazepane-1-carboxylic acid (3-chloro-phenyl)-amide], the IC50 amounted to 50 nM. Next, `COCC(CCN1CCC2(CC2)[C@H](O)C1)N1CCN(C(=O)NCc2ccc(Cl)c(Cl)c2)CCC1=O` (stereo partly drawn) [Example 6, (R,S)-4-[3-((S)-4-Hydroxy-6-aza-spiro[2.5]oct-6-yl)-1-methoxymethyl-propyl]-5-oxo-[1,4]diazepane-1-carboxylic acid 3,4-dichloro-benzylamide]: 840 nM; `COCC(CCN1CCC2(CC2)[C@H](O)C1)N1CCN(C(=O)Oc2ccc(Cl)c(Cl)c2)CCC1=O` (stereo partly drawn) [Example 7, (R,S)-4-[3-((S)-4-Hydroxy-6-aza-spiro[2.5]oct-6-yl)-1-methoxymethyl-propyl]-5-oxo-[1,4]diazepane-1-carboxylic acid 3,4-dichloro-phenyl ester]: 370 nM. Next, `O=C(Oc1ccc(Cl)c(Cl)c1)N1CCC(=O)N(C(CO)CCN2CCC3(CC3)[C@H](O)C2)CC1` (stereo partly drawn) [Example 9, (R,S)-4-[3-((S)-4-Hydroxy-6-aza-spiro[2.5]oct-6-yl)-1-hydroxymethyl-propyl]-5-oxo-[1,4]diazepane-1-carboxylic acid 3,4-dichloro-phenyl ester]: 420 nM. Next, `CN(C)C(=O)C(CCN1CCC2(CC2)[C@H](O)C1)N1CCN(C(=O)Nc2cccc(Cl)c2)CCC1=O` (stereo partly drawn) [Example 10, (R,S)-4-[1-Dimethylcarbamoyl-3-((S)-4-hydroxy-6-aza-spiro[2.5]oct-6-yl)-propyl]-5-oxo-[1,4]diazepane-1-carboxylic acid (3-chloro-phenyl)-amide]: 780 nM. Regarding `O=C1CCN(C(=O)Nc2ccc(Cl)c(Cl)c2)CCN1CCCN1CCCCC1` [Example 11, 5-Oxo-4-(3-piperidin-1-yl-propyl)-[1,4]diazepane-1-carboxylic acid (3,4-dichloro-phenyl)-amide], the IC50 was determined as 980 nM.

With `O=C1CCN(C(=S)Nc2ccc(Cl)c(Cl)c2)CCN1CCCN1CCCCC1` [Example 18, 5-Oxo-4-(3-piperidin-1-yl-propyl)-[1,4]diazepane-1-carbothioic acid (3,4-dichloro-phenyl)-amide], the IC50 came to 600 nM. `O=C(Nc1ccc(Cl)c(Cl)c1)N1CCN(CCCN2CCCCC2)S(=O)(=O)CC1` [Example 21, 1,1-Dioxo-2-(3-piperidin-1-yl-propyl)-[1,2,5]thiadiazepane-5-carboxylic acid (3,4-dichloro-phenyl)-amide]: the IC50 came out at 370 nM. Consider `O=S1(=O)CCN(C(=S)Nc2ccc(Cl)c(Cl)c2)CCN1CCCN1CCCCC1` [Example 22, 1,1-Dioxo-2-(3-piperidin-1-yl-propyl)-[1,2,5]thiadiazepane-5-carbothioic acid (3,4-dichloro-phenyl)-amide], for which the IC50 is 770 nM. On to `C[C@@H]1CN(CCCN2CCCCC2)C(=O)CCN1C(=O)Nc1ccc(Cl)c(Cl)c1` [Example 25, (R)-2-Methyl-5-oxo-4-(3-piperidin-1-yl-propyl)-[1,4]diazepane-1-carboxylic acid (3,4-dichloro-phenyl)-amide], for which the IC50 is 380 nM. Consider `C[C@@H]1CN(CCCN2CCCCC2)C(=O)CCN1C(=S)Nc1ccc(Cl)c(Cl)c1` [Example 26, (R)-2-Methyl-5-oxo-4-(3-piperidin-1-yl-propyl)-[1,4]diazepane-1-carbothioic acid (3,4-dichloro-phenyl)-amide], for which the 50% inhibitory concentration (IC50) stood at 580 nM. Next, `O=C1CCN(C(=O)Nc2ccc(Cl)c(Cl)c2)[C@H](Cc2ccccc2)CN1CCCN1CCCCC1` [Example 27, (R)-2-Benzyl-5-oxo-4-(3-piperidin-1-yl-propyl)-[1,4]diazepane-1-carboxylic acid (3,4-dichloro-phenyl)-amide]: 540 nM. As for `O=C1CCN(C(=O)Nc2ccc(Cl)c(Cl)c2)[C@H](c2ccccc2)CN1CCCN1CCCCC1` [Example 30, (R)-5-Oxo-2-phenyl-4-(3-piperidin-1-yl-propyl)-[1,4]diazepane-1-carboxylic acid (3,4-dichloro-phenyl)-amide], the figure is 960 nM. On to `C[C@H]1C(=O)N(CCCN2CCCCC2)CCN1C(=O)Nc1cccc(Cl)c1` [Example 35, (S)-2-Methyl-3-oxo-4-(3-piperidin-1-yl-propyl)-piperazine-1-carboxylic acid (3-chloro-phenyl)-amide], for which the IC50 amounted to 940 nM. As for `C[C@H]1C(=O)N(CCCN2CCCCC2)CCN1C(=O)Nc1ccc(Cl)c(Cl)c1` [Example 37, (S)-2-Methyl-3-oxo-4-(3-piperidin-1-yl-propyl)-piperazine-1-carboxylic acid (3,4-dichloro-phenyl)-amide], the IC50 was 50 nM.

`C[C@H]1C(=O)N(CCCN2CCCCC2)CCN1C(=O)Nc1ccc(-c2ccccc2)cc1` [Example 38, (S)-2-Methyl-3-oxo-4-(3-piperidin-1-yl-propyl)-piperazine-1-carboxylic acid biphenyl-4-ylamide]: the IC50 is 210 nM.

Turning to `C[C@H]1C(=O)N(CCCN2CCCCC2)CCN1C(=O)Nc1ccc2ccccc2c1` [Example 40, (S)-2-Methyl-3-oxo-4-(3-piperidin-1-yl-propyl)-piperazine-1-carboxylic acid naphthalen-2-ylamide], the IC50 amounted to 360 nM. Next, `C[C@H]1C(=O)N(CCCN2CCCCC2)CCN1C(=O)Nc1ccc(F)c(Cl)c1` [Example 42, (S)-2-Methyl-3-oxo-4-(3-piperidin-1-yl-propyl)-piperazine-1-carboxylic acid (3-chloro-4-fluoro-phenyl)-amide]: 110 nM.

(Values after patent US8071586B2, “Heterocyclyl compounds” (Hoffmann-La Roche Inc., priority 2008, dated 2011).)
